Experimental data reported in ChEMBL document CHEMBL4680246, “Design, synthesis and biological evaluation of novel O-carbamoyl ferulamide derivatives as multi-target-directed ligands for the treatment of Alzheimer's disease” (Eur J Med Chem, 2020).
Calls of active or inactive are those of the source. No cut-off for these calls is given here.

Columns and labels:
[1] = Drug metabolism in human liver microsomes by HPLC analysis; assay type: ADME, Microsome
Danio rerio [2] = organism: Danio rerio; assay: Protection against amyloid beta (1 to 42)-induced zebrafish model of vascular injury assessed as reduction in injury rate; assay type: functional, organism-based
Danio rerio [3] = organism: Danio rerio; assay: Antialzheimer activity in AlCl3-induced Zebrafish model of Alzheimer's disease assessed as increase in motility speed at 0.33 ug/ml relative to control; assay type: functional; conditions: dose 0.33 µg/ml
SH-SY5Y [4] = assay: Neuroprotective activity against amyloid beta (1 to 42)-induced cytotoxicity in human SH-SY5Y cells assessed as cell viability at 1 uM by MTT assay (reference value: 50.3%); assay type: functional; conditions: read-out: Activity
[5] = Toxicity in Zebrafish assessed as absence of blood flow at 6.25 ug/ml relative to control; design: species or system Danio rerio; conditions: at 6.25 µg/mL
[6] = Effect on APP protein level in mouse HT22 cells transfected with pEGFP-N1-APP plasmid assessed as fluorescence intensity at 10 uM by fluorescence microscopy (reference value: 33.2); assay type: functional, HT-22
[7] = molecular target: T1, Amine oxidase [flavin-containing] B (Homo sapiens, UniProt P27338); assay: Inhibition of recombinant human MAO-B
T1 sequence (P27338 whole entry): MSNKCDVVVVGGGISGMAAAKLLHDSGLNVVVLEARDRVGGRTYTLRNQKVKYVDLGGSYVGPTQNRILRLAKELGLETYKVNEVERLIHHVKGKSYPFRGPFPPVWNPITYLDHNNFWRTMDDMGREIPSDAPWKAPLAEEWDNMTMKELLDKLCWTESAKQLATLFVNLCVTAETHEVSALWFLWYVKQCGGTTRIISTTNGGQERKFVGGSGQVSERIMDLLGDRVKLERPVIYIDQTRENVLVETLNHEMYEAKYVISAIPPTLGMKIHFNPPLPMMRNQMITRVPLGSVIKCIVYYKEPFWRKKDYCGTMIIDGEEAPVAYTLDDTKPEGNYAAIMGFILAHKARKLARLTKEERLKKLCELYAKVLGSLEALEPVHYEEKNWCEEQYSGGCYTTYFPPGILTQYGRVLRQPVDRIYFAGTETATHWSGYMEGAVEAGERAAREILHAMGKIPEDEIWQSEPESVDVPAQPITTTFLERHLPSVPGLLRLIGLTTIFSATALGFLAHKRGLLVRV

[8] = Effect on tau protein level in mouse HT22 cells transfected with pRK5-GFP-Tau plasmid assessed as fluorescence intensity at 5 uM by fluorescence microscopy (Rvb <= 40.9); assay type: functional, HT-22
[9] = molecular target: Amyloid-beta precursor protein (Homo sapiens) (UniProt P05067); assay: Inhibition of self-induced Amyloid beta (1 to 42 residues) (unknown origin) aggregation at 25 uM measured after 24 hrs by thioflavin T-based fluorimetric assay relative to control
Chain of Amyloid-beta precursor protein (Homo sapiens) (P05067 whole entry, the tested form may be a part): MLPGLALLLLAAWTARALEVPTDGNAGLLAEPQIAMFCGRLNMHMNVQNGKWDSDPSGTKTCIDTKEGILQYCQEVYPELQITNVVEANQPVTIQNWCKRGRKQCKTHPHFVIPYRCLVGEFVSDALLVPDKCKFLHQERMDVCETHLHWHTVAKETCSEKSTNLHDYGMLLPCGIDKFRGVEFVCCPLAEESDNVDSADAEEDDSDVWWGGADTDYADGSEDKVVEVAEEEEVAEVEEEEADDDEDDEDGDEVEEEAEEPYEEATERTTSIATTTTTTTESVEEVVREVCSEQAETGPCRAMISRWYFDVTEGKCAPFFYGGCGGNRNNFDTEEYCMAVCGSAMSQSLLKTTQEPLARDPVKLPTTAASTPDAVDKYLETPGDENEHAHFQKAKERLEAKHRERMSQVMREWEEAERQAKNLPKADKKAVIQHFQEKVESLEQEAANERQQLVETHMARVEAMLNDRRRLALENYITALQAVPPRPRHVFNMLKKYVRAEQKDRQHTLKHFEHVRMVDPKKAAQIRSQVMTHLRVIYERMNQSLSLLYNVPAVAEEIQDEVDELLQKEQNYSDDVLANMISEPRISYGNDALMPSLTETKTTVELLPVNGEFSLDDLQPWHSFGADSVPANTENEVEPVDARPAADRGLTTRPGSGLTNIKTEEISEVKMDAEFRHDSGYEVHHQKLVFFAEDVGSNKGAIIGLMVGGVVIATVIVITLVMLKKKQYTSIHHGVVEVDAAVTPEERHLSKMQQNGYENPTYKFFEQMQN

Homo sapiens = organism: Homo sapiens; assay: Selectivity index, ratio of IC50 for recombinant human MAO-A to IC50 for recombinant human MAO-B
Acetylcholinesterase = Acetylcholinesterase (Homo sapiens, UniProt P22303); assay: Inhibition of human erythrocytes AChE using acetylcholine iodide as substrate incubated for 15 mins by Ellman's method
Chain of Acetylcholinesterase (P22303 whole entry): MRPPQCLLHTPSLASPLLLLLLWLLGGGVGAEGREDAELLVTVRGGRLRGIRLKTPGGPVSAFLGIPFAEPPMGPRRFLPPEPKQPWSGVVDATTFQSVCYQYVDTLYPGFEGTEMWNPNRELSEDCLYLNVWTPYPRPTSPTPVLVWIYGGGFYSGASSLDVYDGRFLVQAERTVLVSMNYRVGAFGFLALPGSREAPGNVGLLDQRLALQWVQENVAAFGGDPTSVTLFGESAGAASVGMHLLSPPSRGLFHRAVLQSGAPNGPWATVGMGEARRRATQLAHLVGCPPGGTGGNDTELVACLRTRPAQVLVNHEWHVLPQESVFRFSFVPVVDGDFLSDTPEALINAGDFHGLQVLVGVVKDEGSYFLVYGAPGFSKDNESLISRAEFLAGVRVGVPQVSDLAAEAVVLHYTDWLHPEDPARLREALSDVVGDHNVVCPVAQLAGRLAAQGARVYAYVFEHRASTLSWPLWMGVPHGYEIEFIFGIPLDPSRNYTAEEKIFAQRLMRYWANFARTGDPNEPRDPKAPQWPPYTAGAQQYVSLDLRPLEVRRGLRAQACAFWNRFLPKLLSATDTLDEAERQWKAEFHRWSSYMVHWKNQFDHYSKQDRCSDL

[10] = Toxicity in Zebrafish assessed as mortality at 100 ug/ml relative to control; design: species or system Danio rerio; conditions: in vivo, at 100 µg/mL
[11] = Acute toxicity in Kunming mouse assessed as dyspnea at 250 to 1000 mg/kg; assay type: organism-based; conditions: in vivo, dose 250-1000 mg/kg
Cholinesterase [12] = molecular target: T2, Cholinesterase (Homo sapiens, UniProt P06276); assay: Pseudo-irreversible inhibition of human serum BuChE assessed as residual activity at 0.1 times IC50 using acetylcholine iodide as substrate measured 240 mins post dilution by Ellman's method relative to control
T2 sequence (P06276 whole entry): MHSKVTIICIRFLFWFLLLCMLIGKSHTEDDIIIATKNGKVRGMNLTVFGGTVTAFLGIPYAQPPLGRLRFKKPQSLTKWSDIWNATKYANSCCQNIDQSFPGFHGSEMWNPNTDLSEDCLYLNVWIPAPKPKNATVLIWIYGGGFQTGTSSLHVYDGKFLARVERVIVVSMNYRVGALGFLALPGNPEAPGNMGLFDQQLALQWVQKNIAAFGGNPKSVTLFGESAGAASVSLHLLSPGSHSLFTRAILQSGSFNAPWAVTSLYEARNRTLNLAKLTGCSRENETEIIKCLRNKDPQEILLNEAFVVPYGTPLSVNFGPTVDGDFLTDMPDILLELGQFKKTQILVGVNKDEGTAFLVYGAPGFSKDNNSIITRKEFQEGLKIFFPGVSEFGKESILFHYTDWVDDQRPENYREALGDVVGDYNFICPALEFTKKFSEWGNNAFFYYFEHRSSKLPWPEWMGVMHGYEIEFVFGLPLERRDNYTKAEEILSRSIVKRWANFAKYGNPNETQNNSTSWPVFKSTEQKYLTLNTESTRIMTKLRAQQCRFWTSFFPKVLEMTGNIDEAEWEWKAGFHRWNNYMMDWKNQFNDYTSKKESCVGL

[13] = Toxicity in AlCl3-induced Zebrafish model of Alzheimer's disease assessed as mortality at 5 ug/ml relative to control; design: species or system Danio rerio; conditions: in vivo, at 5 µg/mL
[14] = Acute toxicity in Kunming mouse assessed as damage in liver at 50 to 1000 mg/kg measured after 7 days; assay type: organism-based; conditions: in vivo, 168 h, dose 50-1000 mg/kg, time 7 day
[15] = Toxicity in Zebrafish assessed as mortality at 50 ug/ml relative to control; design: species or system Danio rerio; conditions: in vivo, at 50 µg/mL
Danio rerio [16] = organism: Danio rerio; assay: Protection against amyloid beta (1 to 42)-induced zebrafish model of vascular injury assessed as reduction in vascular injury at […] relative to control; assay type: functional; conditions: dose 0.11 µg/ml
HT-22 = assay: Effect on APP protein level in mouse HT22 cells transfected with pEGFP-N1-APP plasmid assessed as reduction in fluorescence intensity by fluorescence microscopy; assay type: functional, cell-based
Cholinesterase [17] = molecular target: T2, Cholinesterase; assay: Inhibition of human serum BuChE assessed as residual activity at 0.1 times IC50 using acetylcholine iodide as substrate measured after dilution by Ellman's method relative to control
[18] = Toxicity in AlCl3-induced Zebrafish model of Alzheimer's disease assessed as mortality at 10 ug/ml relative to control; design: species or system Danio rerio; conditions: in vivo, at 10 µg/mL
Mus musculus = assay: Improvement in cognitive impairment in scopolamine-induced mouse model of amnesia assessed as increase in spontaneous alteration at 5 to 10 mg/kg by Y-maze test; assay type: functional, organism-based; conditions: dose 5-10 mg/kg
[19] = Acute toxicity in Kunming mouse assessed as piloerection at 250 to 1000 mg/kg measured after 24 hrs; assay type: organism-based; conditions: in vivo, dose 250-1000 mg/kg
[20] = Toxicity in Zebrafish assessed as mortality at 25 ug/ml relative to control; design: species or system Danio rerio; conditions: in vivo, at 25 µg/mL
[21] = Toxicity in Zebrafish assessed as induction of yolk sac absorption delay at 6.25 ug/ml relative to control; design: species or system Danio rerio; conditions: in vivo, at 6.25 µg/mL
[22] = Effect on APP protein level in mouse HT22 cells transfected with pEGFP-N1-APP plasmid assessed as fluorescence intensity at 20 uM by fluorescence microscopy (reference value: 33.2); assay type: functional, HT-22
[23] = Effect on APP protein level in mouse HT22 cells transfected with pEGFP-N1-APP plasmid assessed as fluorescence intensity at 5 uM by fluorescence microscopy (reference value: 33.2); assay type: functional, HT-22
SH-SY5Y [24] = assay: Cytotoxicity against human SH-SY5Y cells up to 50 uM by MTT assay; assay type: cell-based
Danio rerio [25] = organism: Danio rerio; assay: Protection against amyloid beta (1 to 42)-induced zebrafish model of vascular injury assessed as reduction in vascular injury at 1 ug/ml relative to control; assay type: functional; conditions: dose 1 µg/ml
Danio rerio [26] = organism: Danio rerio; assay: Protection against amyloid beta (1 to 42)-induced zebrafish model of vascular injury assessed as vascular injury rate at 1 ug/ml (reference value: 73.3%); assay type: functional; conditions: dose 1 µg/ml
[27] = Toxicity in Zebrafish assessed as degenerating muscle within the somites at 6.25 ug/ml relative to control; design: species or system Danio rerio; conditions: in vivo, at 6.25 µg/mL
Danio rerio [28] = organism: Danio rerio; assay: Antialzheimer activity in AlCl3-induced Zebrafish model of Alzheimer's disease assessed as increase in motility speed at 1 ug/ml relative to control; assay type: functional; conditions: dose 1 µg/ml
[29] = Toxicity in Zebrafish assessed as small or misshapen eyes at 6.25 ug/ml relative to control; design: species or system Danio rerio; conditions: in vivo, at 6.25 µg/mL
[30] = Toxicity in Zebrafish assessed as death at 6.25 ug/ml relative to control; design: species or system Danio rerio; conditions: in vivo, at 6.25 µg/mL, read-out: Activity

In the case of CCN(C)C(=O)Oc1ccc(/C=C/C(=O)N2CCc3ccccc3C2)cc1OC, the Drug metabolism [1] is reported as “Metabolite_Detected”, the Activity (Danio rerio [2]) is reported as “Dose-dependent effect” and the Efficacy (Danio rerio [3]) is reported as 79%. The viability at 1 µM (SH-SY5Y [4]) was 68.1%, the Activity [5] was 16.7% and the Flu intensity [6] was 13.3. For the same compound, the IC50 [7] was 5.3 µM, the Flu intensity [8] was 32.6 and the inhibition [9] was 58.2%. The Ratio IC50 (Homo sapiens) was 3, the IC50 (Acetylcholinesterase) was 10.6 µM and the mortality at 100 ug/ml [10] was 100%. The Activity [11] was “Toxic”, the Activity (Cholinesterase [12]) was 66.2% and the mortality at 5 ug/ml [13] was 0%. For the same compound, the Activity [14] was “Non-Toxic”, the mortality at 50 ug/ml [15] was 100% and the Efficacy (Danio rerio [16]) was -9.1%. For the same compound, the Activity (HT-22) was “Dose-dependent effect”, the Activity (Cholinesterase [17]) was 47.1% and the mortality at 10 ug/ml [18] was 0%. For the same compound, the Activity (Mus musculus) was “Active”, the Activity [19] was “Non-Toxic” and the mortality at 25 ug/ml [20] was 100%. For the same compound, the Activity [21] was 100%, the Flu intensity [22] was 14.9 and the Flu intensity [23] was 13.6. For the same compound, the Activity (SH-SY5Y [24]) was “Non-Toxic”, the Efficacy (Danio rerio [25]) was 27.3% and the Activity (Danio rerio [26]) was 53.3%. For the same compound, the Activity [27] was 36.7%, the Efficacy (Danio rerio [28]) was 86.3% and the Activity [29] was 26.7%. The mortality at 6.25 ug/ml [30] was 13.3%.
